# Measurements taken from patent publication US11123329B1, “Use of angiotensin II type 2 receptor agonist” (Vicore Pharma AB, priority 2020, dated 2021).
# What was measured:
# AT2R = details: in particular in inflamed lung tissue; cited from earlier work
# ACE2 = details: in particular in inflamed lung tissue; cited from earlier work
# acute lung injury = details: model of acute lung injury; cited from earlier work
# E-cadherin expression = details: SAEMyoF
# From the text: The effect of C21 on E-cadherin expression was studied using the human disease model BioMAP® platform (fibrosis panel) with ELISA-based protein biomarker detection in a human small airway epithelial cell plus lung fibroblast (SAEMyoF) assay (a service provided by Eurofins DiscoverX Corporation, Fremont, Calif., USA).
# [1] = end of treatment, 100 mg b.i.d. oral, 7 days on top of standard of care, n=51
smiles,measurement,setting,value
"CCCCOC(=O)NS(=O)(=O)c1sc(CC(C)C)cc1-c1ccc(Cn2ccnc2)cc1 [Compound C21, N-butyloxycarbonyl-3-(4-imidazol-1-ylmethylphenyl)-5-isobutylthiophene-2-sulfonamide]","level of circulating biomarker of inflammation CRP, versus placebo","SARS-CoV-2 infection; 100 mg b.i.d., 7 days",no significant differences
same,"level of circulating biomarker of inflammation IL-6, versus placebo","SARS-CoV-2 infection; 100 mg b.i.d., 7 days",no significant differences
same,"level of circulating biomarker of inflammation TNF, versus placebo","SARS-CoV-2 infection; 100 mg b.i.d., 7 days",no significant differences
same,tolerability,"SARS-CoV-2 infection; 100 mg b.i.d., 7 days, COVID-19 patients",well tolerated
same,deaths,"SARS-CoV-2 infection; 100 mg b.i.d., 7 days, n=51",1
same,number of patients needing mechanical ventilation,"SARS-CoV-2 infection; 100 mg b.i.d., 7 days, n=51",1
same,total number of reported adverse events,"SARS-CoV-2 infection; 100 mg b.i.d., 7 days, n=51",64
same,beneficial effect on need of oxygen supply versus placebo,"SARS-CoV-2 infection; 100 mg b.i.d., 7 days, C21 n=51 vs placebo n=56",statistically significant at the predefined 10% level
same,number of patients that needed oxygen supply,SARS-CoV-2 infection; [1],14
same,"patients that needed oxygen supply, share of group",SARS-CoV-2 infection; [1],27%
same,expression of AT2R,AT2R,increase the expression
same,expression of ACE2,ACE2,increase the expression
same,pulmonary gas exchange or other relevant beneficial clinical effects,acute lung injury,not to improve
same,reduction of E-cadherin at lower concentrations,"E-cadherin expression; 0.37, 1.1 and 3.3 μM of C21",did not reduce E-cadherin
same,effect on E-cadherin levels,E-cadherin expression; 0.37-10 μM,dose-dependently reduced
